This is an account of results in ChEMBL document CHEMBL3991601, “The target landscape of clinical kinase drugs” (Science, 2017).

Structures are written as SMILES. Calls of active or inactive are those of the source. Cut-off read from the data, not from the text of the source, for most assays here: actives have a measured Kd and inactives only a lower limit.

In experiment [1] the target is Cyclin-dependent kinase 1 (Homo sapiens, UniProt P06493).
For experiment [2], the target named is Cyclin-dependent kinase 3 (Homo sapiens, UniProt Q00526).
Experiment [3] concerns the target Tyrosine-protein kinase JAK1 (Homo sapiens, UniProt P23458).
Experiment [4] concerns the target T1, Dual specificity mitogen-activated protein kinase kinase 5 (Homo sapiens, UniProt Q13163).
T1 sequence (Q13163 whole entry): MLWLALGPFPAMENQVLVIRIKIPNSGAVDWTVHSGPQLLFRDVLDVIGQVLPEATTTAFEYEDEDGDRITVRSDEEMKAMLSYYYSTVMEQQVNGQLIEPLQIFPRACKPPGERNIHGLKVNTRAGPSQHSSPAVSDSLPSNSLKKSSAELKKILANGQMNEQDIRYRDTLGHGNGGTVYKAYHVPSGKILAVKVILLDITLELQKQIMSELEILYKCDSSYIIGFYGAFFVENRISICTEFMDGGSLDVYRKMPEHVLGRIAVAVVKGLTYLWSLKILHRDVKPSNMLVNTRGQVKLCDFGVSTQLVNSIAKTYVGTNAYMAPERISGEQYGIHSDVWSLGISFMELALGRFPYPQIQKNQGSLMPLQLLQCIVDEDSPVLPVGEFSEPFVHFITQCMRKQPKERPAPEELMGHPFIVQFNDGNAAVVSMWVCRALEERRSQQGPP

The target of experiment [5] is Maternal embryonic leucine zipper kinase (Homo sapiens, UniProt Q14680).
The target in experiment [6] is T2, cGMP-dependent protein kinase 1 (Homo sapiens, UniProt Q13976).
T2 sequence (Q13976 whole entry): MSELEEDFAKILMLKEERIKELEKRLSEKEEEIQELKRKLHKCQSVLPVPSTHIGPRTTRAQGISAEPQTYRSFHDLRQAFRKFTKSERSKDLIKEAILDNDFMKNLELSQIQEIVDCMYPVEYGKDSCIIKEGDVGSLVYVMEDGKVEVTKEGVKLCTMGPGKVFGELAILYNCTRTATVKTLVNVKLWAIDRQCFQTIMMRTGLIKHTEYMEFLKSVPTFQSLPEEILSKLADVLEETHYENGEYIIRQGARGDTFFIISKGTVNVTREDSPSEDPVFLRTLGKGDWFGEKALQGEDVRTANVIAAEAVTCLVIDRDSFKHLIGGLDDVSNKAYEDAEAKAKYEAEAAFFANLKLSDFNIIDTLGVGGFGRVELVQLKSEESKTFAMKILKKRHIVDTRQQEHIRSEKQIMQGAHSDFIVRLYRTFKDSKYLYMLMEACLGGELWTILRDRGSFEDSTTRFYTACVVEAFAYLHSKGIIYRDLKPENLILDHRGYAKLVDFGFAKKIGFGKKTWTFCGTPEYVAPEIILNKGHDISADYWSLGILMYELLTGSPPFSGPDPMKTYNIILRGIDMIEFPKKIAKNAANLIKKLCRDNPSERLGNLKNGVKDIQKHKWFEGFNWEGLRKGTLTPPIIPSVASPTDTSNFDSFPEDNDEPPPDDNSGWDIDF

In experiment [7] the target is Serine/threonine-protein kinase SIK3 (Homo sapiens, UniProt Q9Y2K2).
The target in experiment [8] is T3, Thyroid hormone receptor-associated protein 3 (Homo sapiens, UniProt Q9Y2W1).
T3 sequence (Q9Y2W1 whole entry): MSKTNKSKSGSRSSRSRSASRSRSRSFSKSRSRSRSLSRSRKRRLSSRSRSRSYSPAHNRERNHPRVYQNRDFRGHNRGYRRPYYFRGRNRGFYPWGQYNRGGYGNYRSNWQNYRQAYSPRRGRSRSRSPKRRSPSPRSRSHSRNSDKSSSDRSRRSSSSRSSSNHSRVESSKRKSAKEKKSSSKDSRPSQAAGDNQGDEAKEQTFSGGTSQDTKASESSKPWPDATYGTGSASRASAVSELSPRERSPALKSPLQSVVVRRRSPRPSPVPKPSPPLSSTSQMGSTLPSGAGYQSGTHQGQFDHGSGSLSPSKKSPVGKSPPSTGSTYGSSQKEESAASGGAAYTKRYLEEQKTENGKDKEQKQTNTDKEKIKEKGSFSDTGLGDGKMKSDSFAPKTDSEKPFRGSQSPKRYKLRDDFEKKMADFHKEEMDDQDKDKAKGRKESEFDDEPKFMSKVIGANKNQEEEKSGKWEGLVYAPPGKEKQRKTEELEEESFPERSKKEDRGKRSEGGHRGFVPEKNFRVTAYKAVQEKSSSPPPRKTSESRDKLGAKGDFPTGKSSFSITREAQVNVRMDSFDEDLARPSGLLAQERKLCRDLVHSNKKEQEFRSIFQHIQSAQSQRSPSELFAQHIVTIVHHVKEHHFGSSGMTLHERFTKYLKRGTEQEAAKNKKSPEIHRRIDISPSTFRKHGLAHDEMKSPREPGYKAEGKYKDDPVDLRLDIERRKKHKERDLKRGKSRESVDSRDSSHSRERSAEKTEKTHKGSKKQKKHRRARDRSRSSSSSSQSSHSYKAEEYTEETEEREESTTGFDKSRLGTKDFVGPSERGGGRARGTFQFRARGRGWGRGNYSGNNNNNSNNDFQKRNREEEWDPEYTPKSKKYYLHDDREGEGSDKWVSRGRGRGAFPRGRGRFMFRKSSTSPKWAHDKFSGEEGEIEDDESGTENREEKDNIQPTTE

Experiment [9] addresses T4, Serine/threonine-protein kinase ULK3 (Homo sapiens, UniProt Q6PHR2).
T4 sequence (Q6PHR2 whole entry): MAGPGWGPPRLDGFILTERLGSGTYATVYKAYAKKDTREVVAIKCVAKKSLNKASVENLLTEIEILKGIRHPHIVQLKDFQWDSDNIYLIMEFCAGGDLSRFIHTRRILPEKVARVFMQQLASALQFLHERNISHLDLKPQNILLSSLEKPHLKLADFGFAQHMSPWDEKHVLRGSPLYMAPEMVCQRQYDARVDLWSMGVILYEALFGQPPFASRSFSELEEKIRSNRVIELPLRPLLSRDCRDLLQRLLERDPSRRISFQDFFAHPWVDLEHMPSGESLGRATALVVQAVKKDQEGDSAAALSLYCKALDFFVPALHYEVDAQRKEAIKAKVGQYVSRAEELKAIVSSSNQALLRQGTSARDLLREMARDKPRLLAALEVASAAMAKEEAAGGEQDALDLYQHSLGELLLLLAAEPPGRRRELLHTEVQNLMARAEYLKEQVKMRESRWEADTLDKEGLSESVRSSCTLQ
Note: in the data inactive means no Kd found up to 30 µM.

Tyrosine-protein kinase JAK1, sequence (P23458 whole entry): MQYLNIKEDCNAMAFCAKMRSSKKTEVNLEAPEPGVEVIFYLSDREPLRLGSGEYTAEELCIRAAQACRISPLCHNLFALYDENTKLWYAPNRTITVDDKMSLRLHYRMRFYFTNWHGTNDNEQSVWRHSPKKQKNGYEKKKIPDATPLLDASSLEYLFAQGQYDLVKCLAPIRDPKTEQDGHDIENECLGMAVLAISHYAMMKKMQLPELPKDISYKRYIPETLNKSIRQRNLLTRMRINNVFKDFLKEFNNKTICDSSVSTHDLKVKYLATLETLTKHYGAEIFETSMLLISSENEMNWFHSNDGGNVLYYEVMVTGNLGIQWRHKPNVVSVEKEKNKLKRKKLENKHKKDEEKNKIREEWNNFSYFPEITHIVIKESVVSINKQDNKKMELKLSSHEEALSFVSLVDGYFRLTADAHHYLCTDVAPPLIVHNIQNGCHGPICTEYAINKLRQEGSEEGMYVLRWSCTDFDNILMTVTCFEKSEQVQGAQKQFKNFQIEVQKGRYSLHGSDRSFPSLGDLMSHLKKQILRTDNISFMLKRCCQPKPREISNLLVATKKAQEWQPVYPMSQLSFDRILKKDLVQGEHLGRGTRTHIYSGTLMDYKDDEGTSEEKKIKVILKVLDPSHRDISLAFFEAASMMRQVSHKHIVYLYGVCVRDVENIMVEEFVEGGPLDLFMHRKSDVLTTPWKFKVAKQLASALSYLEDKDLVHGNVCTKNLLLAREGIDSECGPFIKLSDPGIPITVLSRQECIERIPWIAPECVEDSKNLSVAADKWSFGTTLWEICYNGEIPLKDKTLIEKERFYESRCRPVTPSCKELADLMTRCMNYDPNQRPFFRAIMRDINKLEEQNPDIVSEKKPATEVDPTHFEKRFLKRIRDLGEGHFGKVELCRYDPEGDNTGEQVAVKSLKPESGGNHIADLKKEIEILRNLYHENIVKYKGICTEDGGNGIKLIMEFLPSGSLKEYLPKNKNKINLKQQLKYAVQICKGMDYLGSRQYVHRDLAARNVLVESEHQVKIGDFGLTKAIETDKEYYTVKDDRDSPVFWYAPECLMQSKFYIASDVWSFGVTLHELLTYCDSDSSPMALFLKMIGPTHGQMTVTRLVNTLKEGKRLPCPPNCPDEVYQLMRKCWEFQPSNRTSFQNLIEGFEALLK
Cyclin-dependent kinase 1, sequence (P06493 whole entry): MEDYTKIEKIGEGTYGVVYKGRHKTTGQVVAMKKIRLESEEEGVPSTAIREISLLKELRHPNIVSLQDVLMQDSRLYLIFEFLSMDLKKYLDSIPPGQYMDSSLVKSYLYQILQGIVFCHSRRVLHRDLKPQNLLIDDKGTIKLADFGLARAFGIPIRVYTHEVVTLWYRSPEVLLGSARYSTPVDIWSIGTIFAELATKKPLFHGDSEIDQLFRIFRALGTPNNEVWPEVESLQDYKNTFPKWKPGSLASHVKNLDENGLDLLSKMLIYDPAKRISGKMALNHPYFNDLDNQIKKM
Cyclin-dependent kinase 3, sequence (Q00526 whole entry): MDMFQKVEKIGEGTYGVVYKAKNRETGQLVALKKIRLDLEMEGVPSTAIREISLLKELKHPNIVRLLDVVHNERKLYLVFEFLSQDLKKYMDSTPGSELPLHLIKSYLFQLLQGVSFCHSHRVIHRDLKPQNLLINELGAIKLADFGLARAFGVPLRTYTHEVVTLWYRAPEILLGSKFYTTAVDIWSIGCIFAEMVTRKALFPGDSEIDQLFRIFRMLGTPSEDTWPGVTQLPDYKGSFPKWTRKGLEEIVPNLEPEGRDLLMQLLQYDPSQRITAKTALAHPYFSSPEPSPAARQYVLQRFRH
Serine/threonine-protein kinase SIK3, sequence (Q9Y2K2 whole entry): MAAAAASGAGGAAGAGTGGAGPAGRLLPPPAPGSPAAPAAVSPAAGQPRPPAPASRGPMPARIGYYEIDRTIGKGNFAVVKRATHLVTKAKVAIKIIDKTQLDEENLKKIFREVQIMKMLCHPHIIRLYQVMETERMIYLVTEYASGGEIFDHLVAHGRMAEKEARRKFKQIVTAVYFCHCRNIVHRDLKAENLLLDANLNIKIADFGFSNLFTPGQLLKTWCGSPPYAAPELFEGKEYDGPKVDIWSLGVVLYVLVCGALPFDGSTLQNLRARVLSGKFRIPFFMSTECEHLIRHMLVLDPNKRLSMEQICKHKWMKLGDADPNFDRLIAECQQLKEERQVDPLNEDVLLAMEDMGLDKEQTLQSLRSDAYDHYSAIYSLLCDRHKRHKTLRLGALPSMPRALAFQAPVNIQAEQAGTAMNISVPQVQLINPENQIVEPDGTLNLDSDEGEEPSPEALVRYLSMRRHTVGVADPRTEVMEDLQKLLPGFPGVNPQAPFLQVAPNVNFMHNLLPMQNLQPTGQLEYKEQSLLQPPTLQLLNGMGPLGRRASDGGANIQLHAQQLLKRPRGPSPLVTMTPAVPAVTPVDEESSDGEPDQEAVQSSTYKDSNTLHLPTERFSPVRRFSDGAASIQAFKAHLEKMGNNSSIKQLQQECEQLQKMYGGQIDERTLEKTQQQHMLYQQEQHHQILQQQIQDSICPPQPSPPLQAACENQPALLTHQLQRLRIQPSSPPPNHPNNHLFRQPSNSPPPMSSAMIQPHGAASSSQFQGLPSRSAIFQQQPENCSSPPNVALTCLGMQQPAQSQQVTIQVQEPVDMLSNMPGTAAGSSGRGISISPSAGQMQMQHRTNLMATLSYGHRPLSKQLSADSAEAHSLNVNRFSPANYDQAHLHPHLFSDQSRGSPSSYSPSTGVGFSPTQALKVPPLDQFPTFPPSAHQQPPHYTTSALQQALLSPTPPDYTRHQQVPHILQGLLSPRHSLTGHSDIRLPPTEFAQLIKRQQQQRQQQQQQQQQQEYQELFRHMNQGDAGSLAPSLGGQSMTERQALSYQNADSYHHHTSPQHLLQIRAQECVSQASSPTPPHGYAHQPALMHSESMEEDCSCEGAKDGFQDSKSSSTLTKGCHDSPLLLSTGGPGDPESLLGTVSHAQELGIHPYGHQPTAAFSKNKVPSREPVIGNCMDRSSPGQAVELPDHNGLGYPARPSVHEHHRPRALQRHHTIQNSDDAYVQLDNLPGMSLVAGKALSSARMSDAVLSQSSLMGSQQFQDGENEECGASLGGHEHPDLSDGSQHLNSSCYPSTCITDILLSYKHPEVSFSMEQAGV
Maternal embryonic leucine zipper kinase, sequence (Q14680 whole entry): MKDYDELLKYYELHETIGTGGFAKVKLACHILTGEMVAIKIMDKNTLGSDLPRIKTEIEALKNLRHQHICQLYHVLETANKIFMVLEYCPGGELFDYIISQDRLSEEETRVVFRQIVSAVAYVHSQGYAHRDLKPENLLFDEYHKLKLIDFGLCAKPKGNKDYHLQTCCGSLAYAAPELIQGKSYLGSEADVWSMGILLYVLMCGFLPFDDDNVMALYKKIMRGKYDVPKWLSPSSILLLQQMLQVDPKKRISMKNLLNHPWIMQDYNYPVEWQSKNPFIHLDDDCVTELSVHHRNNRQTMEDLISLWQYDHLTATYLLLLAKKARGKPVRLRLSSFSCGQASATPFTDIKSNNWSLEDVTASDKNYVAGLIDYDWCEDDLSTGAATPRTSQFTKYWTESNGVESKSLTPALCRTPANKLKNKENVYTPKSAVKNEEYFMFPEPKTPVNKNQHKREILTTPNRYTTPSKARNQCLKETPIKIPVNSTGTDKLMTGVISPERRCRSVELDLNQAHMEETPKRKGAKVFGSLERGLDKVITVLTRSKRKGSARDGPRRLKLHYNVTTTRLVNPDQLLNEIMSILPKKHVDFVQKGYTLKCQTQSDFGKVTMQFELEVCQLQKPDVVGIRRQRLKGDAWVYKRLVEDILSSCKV

In general, Kd refers to the free concentration of one partner at which half of the binding sites on the other are occupied at equilibrium, for simple one-to-one binding. On to `O=C1NC(=O)[C@@H](c2cn3c4c(cccc24)CCC3)[C@@H]1c1c[nH]c2ccccc12` [TIVANTINIB], for which the Kd in experiment [1], in experiment [2], in experiment [3], in [4], in experiment [5] and in experiment [6] was > 30 µM (inactive) in each case. In addition, the Kd in experiment [7], in experiment [8] and in [9] was > 30 µM (inactive) each time.

Turning to `C[C@@H](NC(=O)c1ncnc(N)c1Cl)c1ncc(C(=O)Nc2cc(C(F)(F)F)c(Cl)cn2)s1` [TOVORAFENIB], the Kd in [1], in [2], in experiment [3], in experiment [4], in experiment [5] and in experiment [6] was > 30 µM (inactive) in each case. Moreover, the Kd in [7], in experiment [8] and in experiment [9] was > 30 µM (inactive) in each case.

In the case of `Cc1cc(Nc2ncnc3ccc(NC4=NC(C)(C)CO4)cc23)ccc1Oc1ccn2ncnc2c1` [TUCATINIB], the Kd in experiment [1], in experiment [2], in experiment [3], in experiment [4], in experiment [5] and in experiment [6] was > 30 µM (inactive) each time. The Kd in experiment [7], in experiment [8] and in experiment [9] was > 30 µM (inactive) in each case.

As to `CC(C)c1cc(CNc2nc(Nc3cc(C4CC4)[nH]n3)cc(N3CCN(C)CC3)n2)on1` [XL-228], the Kd is > 30 µM (inactive) in [1]; 0.429 µM in experiment [2]; > 30 µM (inactive) in experiment [3]; > 30 µM (inactive) in experiment [4]; > 30 µM (inactive) in [5]; > 30 µM (inactive) in experiment [6]. Also, the Kd in [7] is > 30 µM (inactive); in [8] it was > 30 µM (inactive); in [9], 0.492 µM (active).

Consider `CN1C/C=C/CCOc2cccc(c2)-c2ccnc(n2)Nc2cccc(c2)C1` [ZOTIRACICLIB], for which the Kd in experiment [1] is > 30 µM (inactive); in experiment [2], > 30 µM (inactive); in [3], 2.01 µM (active); in experiment [4], > 30 µM (inactive); in [5], > 30 µM (inactive); in experiment [6], > 30 µM (inactive). For the same compound, the Kd in [7] is 1.3 µM; in experiment [8], > 30 µM (inactive); in experiment [9] it was > 30 µM (inactive).
